From patent US10111901B2, “Beta-glucan in combination with anti-cancer agents affecting the tumor microenvironment” (Biothera, Inc., priority 2014, dated 2018)

Columns and labels:
Format in all cases: cell-based, human
CD4 T cells [1] = assay: Mac-CD4 T cell proliferation assay (CFSE dilution, Division Index)
Method: CD14^+ monocytes from human whole blood were enriched using Ficoll gradient and magnetic bead separation. Enriched monocytes (5×10^5 cells per mL) were then cultured in either M1-polarizing (XVivo 10 media (Lonza Group) supplemented with 5% autologous serum and 100 ng/mL recombinant human granulocyte macrophage colony-stimulating factor (rhGM-CSF) (R&D Systems) or M2-polarizing (XVivo 10 media supplemented with 10% autologous serum and 50 ng/mL recombinant human macrophage colony-stimulating factor (rhM-CSF) (R&D Systems) conditions for 6 days. In experiments performed to evaluate the effect of β-glucan, whole blood was first incubated with vehicle (sodium citrate buffer) or 25 μg/mL soluble β-glucan for 2 hours at 37° C. and then the monocytes were isolated and differentiated. Morphology was checked before macrophages were harvested for phenotypic analysis. Culture medium of the day 6 macrophage culture (MCM) was collected, spun down to remove contaminated cell pellet and then frozen down for subsequent cytokine analysis by ELISA or used to setup a co-culture with CD3 & CD28-stimulated CD4 T cells (MCM-CD4 T) for evaluation of either surface markers or CD4 T cell proliferation. The macrophages were used to setup a co-culture with CD3 & CD28- or CD3 only-stimulated CD4 T cells (Mac-CD4 T) on day 6 for evaluation of either surface marker modulation or effect on CD4 T cell proliferation. For Mac-CD4 T cell proliferation study, M1 or M2 macrophages were cultured with CD3 & CD28- or CD3 only-stimulated, CFSE-labeled, autologous CD4 T cells at a 1:10 ratio. T cell proliferation was measured at the end of the experiment (day 9-day 11) by flow cytometry, and results are graphically shown as CFSE-dilution peaks. The assessment of CD3-only stimulated T cells was always done on day 11. Quantitative results were reported as the Division Index (the average number of cell divisions a population underwent) calculated for each of the triplicate wells in each of the culture conditions. Culture supernatants of Mac-CD4 T co-cultures were collected for subsequent cytokine analysis.
Next, vehicle- or β-glucan-treated M1 or M2 macrophages were cultured with CD3 and CD28-stimulated, carboxyfluorescein diacetate succinimidyl ester (CFSE)-labeled autologous CD4 T cells and T cell proliferation was measured at the end of the experiment by flow cytometry and results quantitatively reported as division index (the average number of cell divisions a population has undergone).
Next, the ability of M1/M2 macrophages derived from soluble β-glucan-treated monocytes from high binders and low binders to enhance CD3 & CD28-stimulated CD4 T cell proliferation was evaluated.
Evaluation of cell-to-cell contact was carried out as follows: vehicle- and β-glucan-treated M2 macrophages and CD3 & CD28− versus CD3 only-stimulated CD4 T cell co-cultures were utilized for measuring CD4 T cell proliferation and IFN-γ production.

CD33+CD11b+ cells (MDSC) = assay: Suppression of T cell proliferation by cord blood-derived MDSC; conditions: 2:1 ratio of CD8 T cells to MDSCs, vs citrate buffer
Method: In another study, human cord blood was enriched for CD34^+ cells and cultured for 9 days to produce CD33^+CD11b^+ cells (MDSC). The MDSC were then treated with soluble β-glucan or citrate buffer (control) and evaluated for their ability to suppress T cell proliferation. The T cell proliferation assay was carried out at a 2:1 ratio of CD8 T cells to treated or untreated MDSCs.

CD4 T cells [2] = assay: MCM-CD4 T cell proliferation and surface marker study
Method: For MCM-CD4 T cell proliferation study, CD3 & CD28-stimulated, CFSE-labeled CD4 T cells were cultured with 50% MCM. T cell proliferation was measured on day 11 as described above. Culture supernatants of the MCM-CD4 T cell co-culture were collected for subsequent cytokine analysis. MCM-CD4 T cell surface marker evaluation was performed as described above.
To determine whether soluble factors secreted from β-glucan-treated M2 macrophages are required, measurements were carried out of CD4 T cell proliferation co-cultured with β-glucan-treated M2 macrophages MCM (50% of volume) and surface activation marker modulation on T cells incubated with the MCM were observed. FIG. 9 is representative of 2 different experiments. […] In addition, the CD4 T cells cultured in vehicle- and β-glucan-treated M2 macrophage MCM were evaluated for modulation of co-stimulatory or co-inhibitory molecules (CD80, CD28, CTLA-4, 4-1BB and PD-1).
To test this, M2 macrophages were prepared as described above with a few modifications. The whole blood of a low binder was spun down to remove the plasma and then the cells were reconstituted with serum obtained from a high binder. The reconstituted blood was treated with vehicle or β-glucan (25 μg/mL) for 2 hours at 37° C. The monocytes were evaluated for binding by using anti-β-glucan specific monoclonal antibody and subsequent flow cytometry.

CD4 and CD8 T cells = assay: Allogeneic mixed lymphocyte reaction (allo-MLR) with mMoDC

Substance: β(1,6)-[poly-(1,3)-D-glucopyranosyl]-poly-β(1,3)-D-glucopyranose [β-glucan]
- CD4 T cell proliferation (CD4 T cells [1]; M2 macrophages cultured in TCM and M2a macrophages cultured in IL-4, vs vehicle-treated): maintained the ability to enhance CD4 T cell proliferation
- CD3 & CD28-stimulated CD4 T cell proliferation (CD4 T cells [1]; β-glucan-treated M1 macrophages, high binders or low binders): no differences
- CD3 & CD28-stimulated CD4 T cell proliferation (CD4 T cells [1]; β-glucan-treated M2 macrophages vs vehicle-treated, high binders): significantly higher ability to enhance
- CD4 T cell proliferation (CD4 T cells [1]; β-glucan-treated M2 macrophages with CD3 and CD28-stimulated CD4 T cells, FIG. 2C): enhance CD4 T cell proliferation
- CD4 T cell proliferation (CD4 T cells [1]; β-glucan-treated M2 macrophages, absence of exogenous CD28 antibody (CD3 only)): significantly higher ability to enhance
- CD3 & CD28-stimulated CD4 T cell proliferation (CD4 T cells [1]; β-glucan-treated M2 macrophages, low binders): no enhanced proliferation
- suppression of T cell proliferation by MDSC (CD33+CD11b+ cells (MDSC)): less suppressive
- T cell markers (CD80, CD28, CTLA-4, 4-1BB and PD-1) (CD4 T cells [2]; CD4 T cells cultured in β-glucan-treated M2 macrophage MCM (data not shown)): no change
- CD4 T cell proliferation (CD4 T cells [2]; MCM of M2 macrophages of a low binder crossed-over with high binder's serum, 25 μg/mL): significantly higher ability to enhance
- CD4 T cell proliferation (CD4 T cells [2]; β-glucan-treated M2 macrophage MCM (50% of volume) vs vehicle-treated MCM): significantly higher ability to enhance
- immunogenicity in allo-MLR (CD4 and CD8 T cell expansion) (CD4 and CD8 T cells; β-glucan-treated mMoDC from high binders): increased immunogenicity
- IFN-γ production (CD4 and CD8 T cells; β-glucan-treated mMoDC from high binders vs low binders and vehicle-treated mMoDCs): able to modulate IFN-γ production
